According to patent US20150093333A1, “COMPOSITIONS, METHODS AND USES FOR PEPTIDES IN DIAGNOSIS, PROGRESSION AND TREATMENT OF CANCERS” (THE REGENTS OF THE UNIVERSITY OF COLORADO, body corporate, priority 2003, published 2015):

Key:
microvesicles in plasma = experiment: Nanoparticle tracking analysis of microvesicles in plasma from stressed rats treated with MARCKS peptides; format: binding, rat; details: Alexa Fluor 546 labeled peptides 55 nM
Description: These isolated microvesicles were measured by nanoparticle tracking analysis (NTA) to confirm their average size (ø=56 nm). Tracking analyses were performed using the NanoSight LM10-HS instrument (Amesbury, UK) equipped with a 532 nm laser and observed at scatter and fluorescence modes (filter=550 nm). The instrument was calibrated using commercially available 50 nm polystyrene beads. […] Alexa Fluor 546™-labeled mouse anti-rat CD63 and unconjugated Alexa Fluor 546™ were used as positive and negative controls, respectively. The profiles of MARCKS-ED-Alexa Fluor 546™ and Alexa Fluor 546™ in the absence of microvesicles were also investigated to confirm that these show negligible scatter and fluorescence background signals under identical NTA conditions.
FIG. 5A represents fluorescence enhancement assay with MARCKS-ED incubated with the isolated microvesicles. Peptide MARCKS-ED ([…]) not treated with microvesicles was used as a negative control. Annexin-V (a positive control) and MARCKS-ED were incubated with the isolated rat microvesicles. Fluorescence was normalized to the negative control. […] The diameter size and particle count of the isolated microvesicles detected by MARCKS-ED was further quantified. Nanoparticle tracking analysis (NTA) uses a laser for scatter and fluorescence modes to track small particles by Brownian motion, providing a robust method for detecting nano-sized microvesicles. Under the fluorescence mode with the emission filter set for the Alexa Fluor 546™, the particles that bound to MARCKS-ED, MARCKSmut1, and MARCKSmut2peptides were observed.
FIG. 5B illustrates the results of NTA of microvesicles treated with MARCKS derived peptides. […] The untreated plasma samples were detected using the scatter mode and treated samples were monitored by tracking the fluorescence of Alexa Fluor 546™ conjugated to the MARCKS-ED MARCKSmut1 and MARCKSmut2 peptides. […] Furthermore, blank samples were performed to rule out possible artifacts of background fluorescence from the peptides, the vesicles and the unconjugated dye.

isolated microvesicles = experiment: Fluorescence enhancement with isolated rat microvesicles; format: binding
Description: In another exemplary method, having established the simultaneous curvature- and PS-sensing by MARCKS-ED in synthetic liposomes, MARCKS-ED was tested on detection of highly curved, PS-enriched particles in a complex biological system. Microvesicles (ø=0.03-1 μm) are highly curved lipid vesicles that shed into body fluids (e.g., blood, urine, ascitic fluid). These vesicles are released by cancerous cells in which lipid asymmetry is de-regulated, contributing to externalization and enrichment of PS on their outer leaflet. The microvesicle detecting ability of MARCKS-ED was investigated using plasma samples from a stressed rat model. […]
Microvesicles in these samples were characterized by TEM imaging, and ELISA of detection of the signature CD63 protein and the membrane transport protein Rab5b exposed on the surface. Particles expressing both proteins were captured by antibodies and quantified in a colorimetric endpoint assay.
These isolated microvesicles were measured by nanoparticle tracking analysis (NTA) to confirm their average size (ø=56 nm). Tracking analyses were performed using the NanoSight LM10-HS instrument (Amesbury, UK) equipped with a 532 nm laser and observed at scatter and fluorescence modes (filter=550 nm). […]
Monitored at λex=295 nm, Annexin-V (0.32 μM) was treated with CaCl2 (3 mM) in TES buffer and with 500 μM lipid vesicles of varying PS content. […]

[1] = system: synthetic vesicles of sizes 100 nm and 400 nm; experiment: Cosedimentation assay of MARCKS-ED with synthetic vesicles; format: binding
Text: In another exemplary method, lipid vesicles were employed to the curvature-sensing behavior of the MARCKS derived peptides with various sizes and lipid components. The membrane curvature is defined as the reciprocal of the diameter of a particular particle, e.g., smaller-sized vesicles present highly curved membrane bilayers. A series of lipid models were made to represent various lipid components that closely resemble the lipid composition of biological membranes. […] Dynamic light scattering (DLS) and negative-stain transmission electron microscopy (TEM) were performed to confirm the different vesicle sizes following the pressure-controlled extrusion process through different membrane diameter pores. Commercial polystyrene beads were used as the calibration standard for the vesicle size validation experiments. Furthermore, a time-course experiment was carried out to confirm the stability of the vesicles up to 16 hours. Three different membrane diameters were extruded for the following biophysical characterizations: 30 nm, 100 nm, 400 nm, reflecting different membrane curvatures.
In another exemplary method, a cosedimentation assay was performed to test the size differentiation behavior of MARCKS-ED. Two vesicle pore sizes, 100 and 400 nm, were used in this experiment because vesicles smaller than 100 nm were difficult to pellet even at high centrifugation speed. MARCKS-ED (10 μM) was incubated with 600 μM synthetic vesicles of sizes 100 nm and 400 nm. The positive control was the intact C2A-C2B cytoplasmic domains (C2AB) of rat Synaptotamin-1 (a.a. 96-421). C2AB (1.5 μM) was treated with CaCl2 (1 mM) and incubated with 300 μM synthetic vesicles of sizes 100 nm and 400 nm. C2AB treated with vesicles was incubated at room temperature for 30 minutes, followed by centrifugation of 65,000 rpm for 45 minutes at 20° C. MARCKS-ED treated with vesicles was incubated at room temperature for 2 hours, followed by 75,000 rpm for 45 minutes at 20° C. […]

## KKKKKRFSFKKSFKLSGFSFKKNKK [MARCKS-ED]
Microvesicles in plasma
  binding to microvesicles in whole plasma (NTA fluorescence mode): selectively bind to small-sized microvesicles in whole plasma
Isolated microvesicles
  binding to isolated microvesicles (fluorescence enhancement): demonstrated to bind to these biological particles
[1]
  pull-down by lipid vesicles without PS: less MARCKS-ED was pulled down
[1]; gel electrophoresis of supernatant and pellet
  pull-down by 100 nm vs 400 nm PS-containing vesicles: binds more tightly to highly curved vesicles containing PS
